Experimental data taken from ChEMBL document CHEMBL1909046, “DrugMatrix in vitro pharmacology data”.

Key:
[1] = DRUGMATRIX: GABAA, Chloride Channel, TBOB radioligand binding (ligand: [3H] TBOB); assay type: cell membranes, Rattus norvegicus, Wistar, Cerebral cortex, Membrane; conditions: Not Active = under 50% inhibition at 10 µM
[2] = biological target: T1, Alpha-1B adrenergic receptor (Rattus norvegicus, UniProt P15823); assay: DRUGMATRIX: Alpha-1B adrenergic receptor radioligand binding (ligand: prazosin); assay type: cell membranes, Wistar, Liver, Membrane; conditions: Not Active = under 50% inhibition at 10 µM
T1 sequence (P15823 whole entry): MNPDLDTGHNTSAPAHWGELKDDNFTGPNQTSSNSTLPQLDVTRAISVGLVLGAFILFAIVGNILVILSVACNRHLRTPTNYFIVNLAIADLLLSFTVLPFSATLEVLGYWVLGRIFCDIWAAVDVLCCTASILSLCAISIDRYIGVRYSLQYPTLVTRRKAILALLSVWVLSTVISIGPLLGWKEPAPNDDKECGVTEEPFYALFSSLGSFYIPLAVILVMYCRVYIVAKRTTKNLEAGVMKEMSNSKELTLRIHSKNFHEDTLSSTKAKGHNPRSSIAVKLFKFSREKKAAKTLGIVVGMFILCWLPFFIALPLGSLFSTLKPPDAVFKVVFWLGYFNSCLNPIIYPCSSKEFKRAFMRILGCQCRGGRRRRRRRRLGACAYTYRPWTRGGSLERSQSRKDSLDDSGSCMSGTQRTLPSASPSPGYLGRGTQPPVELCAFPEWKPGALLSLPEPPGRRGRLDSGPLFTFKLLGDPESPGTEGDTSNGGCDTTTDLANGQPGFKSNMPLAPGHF

[3] = biological target: T2, Alpha-1A adrenergic receptor (Rattus norvegicus, UniProt P43140); assay: DRUGMATRIX: Alpha-1A adrenergic receptor radioligand binding (ligand: prazosin); assay type: cell membranes, Wistar, Submaxillary gland, Membrane; conditions: Not Active = under 50% inhibition at 10 µM
T2 sequence (P43140 whole entry): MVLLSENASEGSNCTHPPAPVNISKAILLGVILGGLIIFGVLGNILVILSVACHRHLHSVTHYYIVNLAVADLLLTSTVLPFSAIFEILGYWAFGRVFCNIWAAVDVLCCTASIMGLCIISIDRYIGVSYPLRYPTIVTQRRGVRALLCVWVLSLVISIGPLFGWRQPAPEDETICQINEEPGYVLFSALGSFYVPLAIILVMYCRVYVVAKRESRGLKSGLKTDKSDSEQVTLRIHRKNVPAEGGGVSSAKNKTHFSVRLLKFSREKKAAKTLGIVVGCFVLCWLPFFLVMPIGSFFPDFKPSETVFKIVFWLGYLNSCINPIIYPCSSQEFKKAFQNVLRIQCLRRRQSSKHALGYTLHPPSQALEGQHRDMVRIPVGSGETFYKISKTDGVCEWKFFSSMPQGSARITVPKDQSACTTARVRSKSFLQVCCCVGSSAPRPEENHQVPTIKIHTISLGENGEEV

[4] = biological target: Tyrosine-protein kinase Lck (Homo sapiens, UniProt P06239); assay: DRUGMATRIX: Protein Tyrosine Kinase, LCK enzyme inhibition (substrate: Poly(Glu:Tyr)); assay type: cell-based, Insect cells; conditions: Not Active = under 50% inhibition at 10 µM
Sequence of Tyrosine-protein kinase Lck (P06239 whole entry): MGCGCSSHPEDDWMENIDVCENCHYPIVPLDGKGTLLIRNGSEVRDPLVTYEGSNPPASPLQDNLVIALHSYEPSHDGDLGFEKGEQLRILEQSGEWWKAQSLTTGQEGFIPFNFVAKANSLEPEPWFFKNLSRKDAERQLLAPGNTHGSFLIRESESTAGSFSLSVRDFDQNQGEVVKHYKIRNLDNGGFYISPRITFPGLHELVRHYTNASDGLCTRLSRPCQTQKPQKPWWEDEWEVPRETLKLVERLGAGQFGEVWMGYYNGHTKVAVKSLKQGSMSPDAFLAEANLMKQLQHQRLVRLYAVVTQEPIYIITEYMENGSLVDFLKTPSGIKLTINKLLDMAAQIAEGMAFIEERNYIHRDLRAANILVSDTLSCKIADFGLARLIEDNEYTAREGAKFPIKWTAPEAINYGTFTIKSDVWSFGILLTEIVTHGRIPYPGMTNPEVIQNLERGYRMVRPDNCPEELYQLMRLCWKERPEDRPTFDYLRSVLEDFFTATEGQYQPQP

Glycine receptor = Glycine receptor (Rattus norvegicus, UniProt P22771+P24524+P07727+P20781); assay type: cell membranes, Wistar, Spinal cord, Membrane; note: in other assays of this panel Not Active means under 50% inhibition at 10 µM
Adenosine receptor A3 = biological target: T3, Adenosine receptor A3 (Homo sapiens, UniProt P0DMS8); assay type: cell membranes, CHO-K1, Membrane;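 note: radioligand binding assay with AB-MECA serving as the labeled ligand; in other assays of this panel Not Active means under 50% inhibition at 10 µM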
T3 sequence (P0DMS8 whole entry): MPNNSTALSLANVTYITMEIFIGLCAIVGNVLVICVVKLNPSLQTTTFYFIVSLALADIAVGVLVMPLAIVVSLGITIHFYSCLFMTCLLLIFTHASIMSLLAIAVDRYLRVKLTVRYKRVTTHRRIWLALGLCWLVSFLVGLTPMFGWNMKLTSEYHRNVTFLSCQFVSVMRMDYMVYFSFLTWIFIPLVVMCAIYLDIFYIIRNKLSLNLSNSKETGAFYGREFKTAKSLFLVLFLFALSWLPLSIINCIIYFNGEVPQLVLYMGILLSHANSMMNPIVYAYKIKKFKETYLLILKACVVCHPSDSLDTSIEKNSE

Compound	IC50 [1]	Ki [1]	IC50 [2]	IC50 [3]	IC50 ([4]; insect cells)	IC50 (Glycine receptor)	IC50 (Adenosine receptor A3; cho-k1)	IC50 ([4]; read-out: IC50) [µM]	IC50 (Adenosine receptor A3; read-out: IC50) [µM]	Ki (Adenosine receptor A3; read-out: Ki) [µM]	Ki [2]	Ki [3]	Ki ([4]; insect cells)	Ki (Glycine receptor)	Ki (Adenosine receptor A3; cho-k1)
CC(C)CN(C[C@@H](O)[C@H](Cc1ccccc1)NC(=O)O[C@H]1CCOC1)S(=O)(=O)c1ccc(N)cc1	Not Active	Not Active	Not Active	Not Active	Not Active	Not Active	Not Active	–	–	–	–	–	–	–	–
c1ccc(Nc2ccc(Nc3ccccc3)cc2)cc1	Not Active	Not Active	Not Active	Not Active	Not Active	Not Active	Not Active	–	–	–	–	–	–	–	–
COc1cc2c3cc1Oc1cc(ccc1O)C[C@@H]1c4c(cc(OC)c(O)c4Oc4ccc(cc4)C[C@@H]3N(C)CC2)CC[N+]1(C)C.[Cl-]	Not Active	Not Active	Not Active	Not Active	Not Active	Not Active	Not Active	–	–	–	–	–	–	–	–
NC(=O)N1c2ccccc2CCc2ccccc21	Not Active	Not Active	Not Active	Not Active	Not Active	Not Active	Not Active	–	–	–	–	–	–	–	–
O=C1CC[C@@H](N2C(=O)c3ccccc3C2=O)C(=O)N1	Not Active	Not Active	Not Active	Not Active	Not Active	Not Active	Not Active	–	–	–	–	–	–	–	–
Cc1onc(O)c1CC(N)C(=O)O (racemic) [(R,S)-AMPA]	Not Active	Not Active	Not Active	Not Active	Not Active	Not Active	Not Active	–	–	–	–	–	–	–	–
Cc1ccc2cc3c(ccc4ccccc43)c3c2c1CC3 [3-METHYLCHOLANTHRENE]	Not Active	Not Active	Not Active	Not Active	–	Not Active	–	55.5	5.54	3.13	–	–	–	–	–
CC[C@@]1(O)C[C@H](O[C@H]2C[C@H](N(C)C)[C@H](O[C@H]3C[C@H](O)[C@H](O[C@H]4CCC(=O)[C@H](C)O4)[C@H](C)O3)[C@H](C)O2)c2c(cc3c(c2O)C(=O)c2c(O)cccc2C3=O)[C@H]1C(=O)OC [ACLARUBICIN]	Not Active	Not Active	Not Active	Not Active	Not Active	Not Active	Not Active	–	–	–	–	–	–	–	–
Nc1nc2c(ncn2COCCO)c(=O)[nH]1 [ACYCLOVIR]	Not Active	Not Active	Not Active	Not Active	Not Active	Not Active	Not Active	–	–	–	–	–	–	–	–
Cc1c(C)c2c(c(C)c1O)CC[C@@](C)(CCC[C@H](C)CCC[C@H](C)CCCC(C)C)O2 [ALPHA-TOCOPHEROL]	Not Active	Not Active	Not Active	Not Active	Not Active	Not Active	Not Active	–	–	–	–	–	–	–	–
CN(C)c1nc(N(C)C)nc(N(C)C)n1 [ALTRETAMINE]	Not Active	Not Active	Not Active	Not Active	Not Active	Not Active	Not Active	–	–	–	–	–	–	–	–
Nc1c(Br)cc(Br)cc1CN[C@H]1CC[C@H](O)CC1 [AMBROXOL]	Not Active	Not Active	Not Active	Not Active	Not Active	Not Active	Not Active	–	–	–	–	–	–	–	–
NCCCCCC(=O)O [AMINOCAPROIC ACID]	Not Active	Not Active	Not Active	Not Active	Not Active	Not Active	Not Active	–	–	–	–	–	–	–	–
CCC1(c2ccc(N)cc2)CCC(=O)NC1=O (stereo unspecified) [AMINOGLUTETHIMIDE]	Not Active	Not Active	Not Active	Not Active	Not Active	Not Active	Not Active	–	–	–	–	–	–	–	–
Cc1ccc(/N=C/N(C)/C=N/c2ccc(C)cc2C)c(C)c1 [AMITRAZ]	Not Active	Not Active	Not Active	Not Active	Not Active	Not Active	Not Active	–	–	–	–	–	–	–	–
CCOC(=O)C1=C(COCCN)NC(C)=C(C(=O)OC)C1c1ccccc1Cl (stereo unspecified) [AMLODIPINE]	Not Active	Not Active	Not Active	Not Active	Not Active	Not Active	Not Active	–	–	–	–	–	–	–	–
COc1ccc(C[C@H]2NC[C@H](O)[C@H]2OC(C)=O)cc1 [ANISOMYCIN]	Not Active	Not Active	Not Active	Not Active	Not Active	Not Active	Not Active	–	–	–	Not Active	Not Active	Not Active	Not Active	Not Active
Nc1ncn([C@@H]2O[C@H](CO)[C@@H](O)[C@H]2O)c(=O)n1 [AZACITIDINE]	Not Active	Not Active	Not Active	Not Active	Not Active	Not Active	Not Active	–	–	–	–	–	–	–	–
CN(C)C(=O)Oc1cc(OC(=O)N(C)C)cc(C(O)CNC(C)(C)C)c1 (stereo unspecified) [BAMBUTEROL]	Not Active	Not Active	Not Active	Not Active	Not Active	Not Active	Not Active	–	–	–	–	–	–	–	–
c1ccc2c(c1)c1cccc3ccc4cccc2c4c31 [BENZO[E]PYRENE]	Not Active	Not Active	Not Active	Not Active	Not Active	Not Active	Not Active	–	–	–	–	–	–	–	–
CNCCc1ccccn1 [BETAHISTINE]	Not Active	Not Active	Not Active	Not Active	Not Active	Not Active	Not Active	–	–	–	–	–	–	–	–
CC(C)C(Br)C(=O)NC(N)=O (stereo unspecified) [BROMISOVALUM]	Not Active	Not Active	Not Active	Not Active	Not Active	Not Active	Not Active	–	–	–	–	–	–	–	–
CCCC1O[C@@H]2C[C@H]3[C@@H]4CCC5=CC(=O)C=C[C@]5(C)[C@H]4[C@@H](O)C[C@]3(C)[C@]2(C(=O)CO)O1 (stereo partly specified) [BUDESONIDE]	Not Active	Not Active	Not Active	Not Active	Not Active	Not Active	Not Active	–	–	–	–	–	–	–	–
CC(NC(C)(C)C)C(=O)c1cccc(Cl)c1 (stereo unspecified) [BUPROPION]	Not Active	Not Active	Not Active	Not Active	Not Active	Not Active	Not Active	–	–	–	–	–	–	–	–
CN(Cc1ccc(C(C)(C)C)cc1)Cc1cccc2ccccc12 [BUTENAFINE]	Not Active	Not Active	Not Active	Not Active	Not Active	Not Active	Not Active	–	–	–	–	–	–	–	–
CN(C)CCCN1c2ccccc2Sc2ccc(Cl)cc21 [CHLORPROMAZINE]	Not Active	Not Active	–	–	Not Active	Not Active	Not Active	–	–	–	–	–	–	–	–
Clc1cccc(Cl)c1NC1=NCCN1 [CLONIDINE]	Not Active	Not Active	–	–	Not Active	Not Active	Not Active	–	–	–	–	–	–	–	–
Cc1ccc(N(CC2=NCCN2)c2cccc(O)c2)cc1 [PHENTOLAMINE]	Not Active	Not Active	–	–	Not Active	Not Active	Not Active	–	–	–	–	–	–	–	–
CADMIUM ACETATE	Not Active	Not Active	Not Active	Not Active	–	Not Active	Not Active	–	–	–	Not Active	Not Active	–	Not Active	Not Active
